Measurements as given in patent publication US10105357B2, “Indication of antibiotic drugs for preparation of cancer inhibition pharmaceutical composition” (LAUNX BIOMEDICAL CO., LTD., priority 2014, dated 2018).
Where two headings read alike, the source gives them in different places.

Assays:
[1] = test system: HCT116 (p53+) (Colorectal Carcinoma)
[2] = test system: TOV-21G; experiment: Cell viability analysis, ovarian cancer TOV-21G; format: cell-based, human; settings: TOV-21G, repeated experiment
[3] = test system: cancer cell lines; experiment: Cell viability analysis (WST-1) on cancer cell lines; format: cell-based, human; settings: drug 10 μM, 72 hours, WST-1; Table 3
[4] = test system: TSGH-8301 (Urinary Bladder Carcinoma); experiment: Cell viability analysis, bladder cancer TSGH-8301; format: cell-based, human; settings: for viability at 10 µM: Homo sapiens, 72 h
[5] = test system: HL-60 (Acute Promyelocytic Leukemia); experiment: Cell viability analysis, leukemia HL-60; format: cell-based, human; settings: Homo sapiens, HL-60, 72 h, drug 10 μM, 72 hours, WST-1, OD450 nm; read-out: cell viability (survival rate), HL-60
[6] = test system: A549 (Lung Adenocarcinoma); experiment: Cell viability analysis, lung cancer A549; format: cell-based, human; settings: Homo sapiens, A549, 72 h
[7] = test system: PC3 (p53−) (Prostate Adenocarcinoma); experiment: Cell viability analysis, prostate cancer PC3; format: cell-based, human; settings: for viability at 10 µM: Homo sapiens, 72 h
[8] = test system: NIH: OVCAR-3; experiment: Cell viability analysis, ovarian cancer NIH: OVCAR-3; format: cell-based, human; settings: NIH-OVCAR-3, repeated experiment
[9] = test system: T24; experiment: Cell viability analysis, bladder cancer T24; format: cell-based, human; settings: T24, repeated experiment
[10] = test system: HeLa (Cervix Adenocarcinoma); experiment: Cell viability analysis, cervical cancer HeLa; format: cell-based, human; settings: Homo sapiens, HeLa, 72 h, HeLa; repeated experiment; read-out: The results of antibiotic drug inhibiting cancer cell lines (cell viability analysis), HeLa
[11] = test system: HepG2 (Hepatocellular Carcinoma); experiment: Cell viability analysis, hepatic cancer HepG2; format: cell-based, human; settings: for viability at 10 µM: Homo sapiens, HepG2, 72 h
[12] = test system: HI650 (Lung Adenocarcinoma); experiment: Cell viability analysis, lung cancer HI650; format: cell-based, human; settings: Homo sapiens, NCI-H1650, 72 h
[13] = test system: Hep3B (hepatocellular carcinoma); experiment: Cell viability analysis, hepatic cancer Hep3B; format: cell-based, human; settings: Hep3B, repeated experiment
[14] = test system: AGS (Gastric Adenocarcinoma); experiment: Cell viability analysis, gastric cancer AGS; format: cell-based, human; settings: for viability at 10 µM: Homo sapiens, 72 h
[15] = test system: A375 (Amelanotic Melanoma); experiment: Cell viability analysis, skin cancer A375; format: cell-based, human; settings: Homo sapiens, A-375, 72 h
[16] = test system: 786-O (Renal adenocarcinoma); experiment: Cell viability analysis, renal cancer 786-O; format: cell-based, human; settings: 786-O, repeated experiment
[17] = test system: MDA-MB-231 (Mammary Gland, Adenocarcinoma); experiment: Cell viability analysis, breast cancer MDA-MB-231; format: cell-based, human; settings: MDA-MB231, repeated experiment
[18] = test system: BxPC-3; experiment: Cell viability analysis, pancreatic cancer BxPC-3; format: cell-based, human; settings: Homo sapiens, 72 h; BxPC-3; repeated experiment; read-out: The results of antibiotic drug inhibiting cancer cell lines (cell viability analysis), BxPC-3
[19] = test system: BCC (basal cell carcinoma); experiment: Cell viability analysis, skin cancer BCC; format: cell-based, human; settings: BCC, repeated experiment
[20] = test system: SAS (Tongue squamous cell carcinoma); experiment: Cell viability analysis, tongue cancer SAS; format: cell-based, human; settings: SAS, repeated experiment
[21] = test system: LoVo (Colorectal Adenocarcinoma); experiment: Cell viability analysis, colon cancer LoVo; format: cell-based, human; settings: LoVo, repeated experiment
[22] = test system: MKN-45 (Gastric Adenocarcinoma); experiment: Cell viability analysis, gastric cancer MKN-45; format: cell-based, human; settings: for viability at 10 µM: Homo sapiens, MKN-45, 72 h
[23] = test system: U-2OS; experiment: Cell viability analysis, osteosarcoma U-2OS; format: cell-based, human; settings: U2OS, repeated experiment
[24] = test system: MCF7 (Mammary Gland, Adenocarcinoma); experiment: Cell viability analysis, breast cancer MCF7; format: cell-based, human; settings: for viability at 10 µM: Homo sapiens, MCF7, 72 h
[25] = test system: AsPC-1; experiment: Cell viability analysis, pancreatic cancer AsPC-1; format: cell-based, human; settings: Homo sapiens, ASPC1, 72 h; AsPC-1; repeated experiment; read-out: The results of antibiotic drug inhibiting cancer cell lines (cell viability analysis), AsPC-1
[26] = test system: C-33A (Cervical carcinoma); experiment: Cell viability analysis, cervical cancer C-33A; format: cell-based, human; settings: C-33A; repeated experiment

## CC(C)c1nc(N(C)S(C)(=O)=O)nc(-c2ccc(F)cc2)c1/C=C/[C@@H](O)C[C@@H](O)CC(=O)O [Rosuvastatin calcium (Crestor), Rosuvastatin calcium]
[1]
  viability: 85.6%
[2]; Homo sapiens, TOV21G, 72 h, read-out: The results of antibiotic drug inhibiting cancer cell lines (cell viability analysis), TOV-21G
  viability at 10 µM: 80.4%
[3]
  inhibition effect on different cancer cell lines: significant inhibition effect
[4]; TSGH-8301, repeated experiment, read-out: The results of antibiotic drug inhibiting cancer cell lines (cell viability analysis), TSGH-8301
  viability at 10 µM: 113%
[4]; drug 10 μM, 72 hours, WST-1, OD450 nm, read-out: cell viability (survival rate), TSGH
  viability at 10 µM: 56%
[5]
  viability at 10 µM: 81.7%
[6]; A549, repeated experiment, read-out: The results of antibiotic drug inhibiting cancer cell lines (cell viability analysis), A549
  viability at 10 µM: 95.1%
[6]; drug 10 μM, 72 hours, WST-1, OD450 nm, read-out: cell viability (survival rate), A549
  viability at 10 µM: 97%
[7]; PC-3, repeated experiment, read-out: The results of antibiotic drug inhibiting cancer cell lines (cell viability analysis), PC-3
  viability at 10 µM: 95.7%
[7]; drug 10 μM, 72 hours, WST-1, OD450 nm, read-out: cell viability (survival rate), PC3
  viability at 10 µM: 94.3%
[8]; Homo sapiens, 72 h, read-out: The results of antibiotic drug inhibiting cancer cell lines (cell viability analysis), NIH-OVCAR-3
  viability at 10 µM: 102%
[9]; Homo sapiens, T-24, 72 h, read-out: The results of antibiotic drug inhibiting cancer cell lines (cell viability analysis), T24
  viability at 10 µM: 75.9%
[10]
  viability at 10 µM: 97.1%
[11]; HepG2, repeated experiment, read-out: The results of antibiotic drug inhibiting cancer cell lines (cell viability analysis), HepG2
  viability at 10 µM: 108%
[11]; drug 10 μM, 72 hours, WST-1, OD450 nm, read-out: cell viability (survival rate), HepG2
  viability at 10 µM: 73.7%
[12]; H1650, repeated experiment, read-out: The results of antibiotic drug inhibiting cancer cell lines (cell viability analysis), H1650
  viability at 10 µM: 76.7%
[12]; drug 10 μM, 72 hours, WST-1, OD450 nm, read-out: cell viability (survival rate), H1650
  viability at 10 µM: 80.8%
[13]; Homo sapiens, 72 h, read-out: The results of antibiotic drug inhibiting cancer cell lines (cell viability analysis), Hep3B
  viability at 10 µM: 109%
[14]; AGS, repeated experiment, read-out: The results of antibiotic drug inhibiting cancer cell lines (cell viability analysis), AGS
  viability at 10 µM: 104%
[14]; drug 10 μM, 72 hours, WST-1, OD450 nm, read-out: cell viability (survival rate), AGS
  viability at 10 µM: 55.9%
[15]; A375, repeated experiment, read-out: The results of antibiotic drug inhibiting cancer cell lines (cell viability analysis), A375
  viability at 10 µM: 105%
[15]; drug 10 μM, 72 hours, WST-1, OD450 nm, read-out: cell viability (survival rate), A375
  viability at 10 µM: 55.6%
[16]; Homo sapiens, 786-0, 72 h, read-out: The results of antibiotic drug inhibiting cancer cell lines (cell viability analysis), 786-O
  viability at 10 µM: 92.5%
[17]; Homo sapiens, MDA-MB-231, 72 h, read-out: The results of antibiotic drug inhibiting cancer cell lines (cell viability analysis), MDA-MB231
  viability at 10 µM: 90.2%
[18]
  viability at 10 µM: 65.5%
[19]; Homo sapiens, 72 h, read-out: The results of antibiotic drug inhibiting cancer cell lines (cell viability analysis), BCC
  viability at 10 µM: 104%
[20]; Homo sapiens, 72 h, read-out: The results of antibiotic drug inhibiting cancer cell lines (cell viability analysis), SAS
  viability at 10 µM: 93.3%
[21]; Homo sapiens, 72 h, read-out: The results of antibiotic drug inhibiting cancer cell lines (cell viability analysis), LoVo
  viability at 10 µM: 103%
[22]; MKN-45, repeated experiment, read-out: The results of antibiotic drug inhibiting cancer cell lines (cell viability analysis), MKN-45
  viability at 10 µM: 110%
[22]; drug 10 μM, 72 hours, WST-1, OD450 nm, read-out: cell viability (survival rate), MKN-45
  viability at 10 µM: 83.8%
[23]; Homo sapiens, 72 h, read-out: The results of antibiotic drug inhibiting cancer cell lines (cell viability analysis), U2OS
  viability at 10 µM: 102%
[24]; MCF-7, repeated experiment, read-out: The results of antibiotic drug inhibiting cancer cell lines (cell viability analysis), MCF-7
  viability at 10 µM: 85.9%
[24]; drug 10 μM, 72 hours, WST-1, OD450 nm, read-out: cell viability (survival rate), MCF7
  viability at 10 µM: 88.9%
[25]
  viability at 10 µM: 80.2%

## CN[C@H](CC(C)C)C(=O)N[C@H]1C(=O)N[C@@H](CC(N)=O)C(=O)N[C@H]2C(=O)N[C@H]3C(=O)N[C@H](C(=O)N[C@H](C(=O)O)c4cc(O)cc(O)c4-c4cc3ccc4O)[C@H](O)c3ccc(c(Cl)c3)Oc3cc2cc(c3O[C@@H]2O[C@H](CO)[C@@H](O)[C@H](O)[C@H]2O[C@H]2C[C@](C)(N)[C@H](O)[C@H](C)O2)Oc2ccc(cc2Cl)[C@H]1O.Cl [Vancomycin HCl (Vancocin)]
[1]
  viability: 94.8%
[2]
  The results of antibiotic drug inhibiting cancer cell lines (cell viability analysis), TOV-21G: 97.4
[4]; TSGH-8301, repeated experiment
  The results of antibiotic drug inhibiting cancer cell lines (cell viability analysis), TSGH-8301: 118
[7]; PC-3, repeated experiment
  The results of antibiotic drug inhibiting cancer cell lines (cell viability analysis), PC-3: 104.2
[8]
  The results of antibiotic drug inhibiting cancer cell lines (cell viability analysis), NIH-OVCAR-3: 105.6
[9]
  The results of antibiotic drug inhibiting cancer cell lines (cell viability analysis), T24: 95.32
[11]; HepG2, repeated experiment
  The results of antibiotic drug inhibiting cancer cell lines (cell viability analysis), HepG2: 92.06
[13]
  The results of antibiotic drug inhibiting cancer cell lines (cell viability analysis), Hep3B: 94.6
[14]; AGS, repeated experiment
  The results of antibiotic drug inhibiting cancer cell lines (cell viability analysis), AGS: 108.9
[16]
  The results of antibiotic drug inhibiting cancer cell lines (cell viability analysis), 786-O: 102.3
[26]
  The results of antibiotic drug inhibiting cancer cell lines (cell viability analysis), C-33A: 100.6
[17]
  The results of antibiotic drug inhibiting cancer cell lines (cell viability analysis), MDA-MB231: 90.26
[19]
  The results of antibiotic drug inhibiting cancer cell lines (cell viability analysis), BCC: 96.78
[20]
  The results of antibiotic drug inhibiting cancer cell lines (cell viability analysis), SAS: 102
[21]
  The results of antibiotic drug inhibiting cancer cell lines (cell viability analysis), LoVo: 101
[22]; MKN-45, repeated experiment
  The results of antibiotic drug inhibiting cancer cell lines (cell viability analysis), MKN-45: 116.9
[23]
  The results of antibiotic drug inhibiting cancer cell lines (cell viability analysis), U2OS: 62.87
[24]; MCF-7, repeated experiment
  The results of antibiotic drug inhibiting cancer cell lines (cell viability analysis), MCF-7: 91.83
